# Measurements taken from patent US8192962B2, “Processes for detecting toxic substances” (Daikin Industries, Ltd., priority 2001, dated 2012).
# Tested on: Mitochondria-located protein genes
# Test: DNA chip mRNA expression in yeast, mitochondria-located protein genes (Table 2)
# Assay type: cell-based, Saccharomyces cerevisiae S288C
# Conditions: cells incubated two hours with the chemical substance
# Procedure, shortened: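 Value is the scanned fluorescence intensity ratio of exposed versus chemical-free cells. Log-phase S288C yeast in YPD at 25° C. received one toxic substance for two hours, dosed to slow growth without killing; Cy3/Cy5-labeled cDNA from oligo-dT-purified mRNA was hybridized to a whole-genome chip at 65° C.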
smiles,measurement,setting,value
"CCCCCCCCCCCCc1ccc(S(=O)(=O)[O-])cc1.[Na+] [(17), sodium dodecylbenzosulfonate]",The level of expressed mRNA in the presence of chemical substance/The level of expressed mRNA in the absence of chemical substance,yeast gene YJR121W,1.1
same,The level of expressed mRNA in the presence of chemical substance/The level of expressed mRNA in the absence of chemical substance,yeast gene YKL003C,1.0
same,The level of expressed mRNA in the presence of chemical substance/The level of expressed mRNA in the absence of chemical substance,yeast gene YKL016C,1.0
same,The level of expressed mRNA in the presence of chemical substance/The level of expressed mRNA in the absence of chemical substance,yeast gene YKL141W,0.9
same,The level of expressed mRNA in the presence of chemical substance/The level of expressed mRNA in the absence of chemical substance,yeast gene YKL142W,2.4
same,The level of expressed mRNA in the presence of chemical substance/The level of expressed mRNA in the absence of chemical substance,yeast gene YKL148C,0.8
same,The level of expressed mRNA in the presence of chemical substance/The level of expressed mRNA in the absence of chemical substance,yeast gene YKL170W,1.1
same,The level of expressed mRNA in the presence of chemical substance/The level of expressed mRNA in the absence of chemical substance,yeast gene YKL194C,1.1
same,The level of expressed mRNA in the presence of chemical substance/The level of expressed mRNA in the absence of chemical substance,yeast gene YKR066C,0.9
same,The level of expressed mRNA in the presence of chemical substance/The level of expressed mRNA in the absence of chemical substance,yeast gene YLL041C,1.1
same,The level of expressed mRNA in the presence of chemical substance/The level of expressed mRNA in the absence of chemical substance,yeast gene YLR038C,1.2
same,The level of expressed mRNA in the presence of chemical substance/The level of expressed mRNA in the absence of chemical substance,yeast gene YLR259C,0.8
same,The level of expressed mRNA in the presence of chemical substance/The level of expressed mRNA in the absence of chemical substance,yeast gene YLR295C,0.9
same,The level of expressed mRNA in the presence of chemical substance/The level of expressed mRNA in the absence of chemical substance,yeast gene YLR304C,0.5
same,The level of expressed mRNA in the presence of chemical substance/The level of expressed mRNA in the absence of chemical substance,yeast gene YLR348C,1.1
same,The level of expressed mRNA in the presence of chemical substance/The level of expressed mRNA in the absence of chemical substance,yeast gene YLR395C,1.2
same,The level of expressed mRNA in the presence of chemical substance/The level of expressed mRNA in the absence of chemical substance,yeast gene YML054C,1.1
same,The level of expressed mRNA in the presence of chemical substance/The level of expressed mRNA in the absence of chemical substance,yeast gene YML120C,1.0
same,The level of expressed mRNA in the presence of chemical substance/The level of expressed mRNA in the absence of chemical substance,yeast gene YML129C,1.3
same,The level of expressed mRNA in the presence of chemical substance/The level of expressed mRNA in the absence of chemical substance,yeast gene YMR023C,1.1
same,The level of expressed mRNA in the presence of chemical substance/The level of expressed mRNA in the absence of chemical substance,yeast gene YMR035W,2.2
same,The level of expressed mRNA in the presence of chemical substance/The level of expressed mRNA in the absence of chemical substance,yeast gene YMR083W,0.9
same,The level of expressed mRNA in the presence of chemical substance/The level of expressed mRNA in the absence of chemical substance,yeast gene YMR089C,0.9
same,The level of expressed mRNA in the presence of chemical substance/The level of expressed mRNA in the absence of chemical substance,yeast gene YMR152W,1.5
same,The level of expressed mRNA in the presence of chemical substance/The level of expressed mRNA in the absence of chemical substance,yeast gene YMR203W,0.8
same,The level of expressed mRNA in the presence of chemical substance/The level of expressed mRNA in the absence of chemical substance,yeast gene YMR267W,0.9
same,The level of expressed mRNA in the presence of chemical substance/The level of expressed mRNA in the absence of chemical substance,yeast gene YNL055C,1.2
same,The level of expressed mRNA in the presence of chemical substance/The level of expressed mRNA in the absence of chemical substance,yeast gene YNL071W,1.0
same,The level of expressed mRNA in the presence of chemical substance/The level of expressed mRNA in the absence of chemical substance,yeast gene YNL073W,0.8
same,The level of expressed mRNA in the presence of chemical substance/The level of expressed mRNA in the absence of chemical substance,yeast gene YNL104C,0.9
same,The level of expressed mRNA in the presence of chemical substance/The level of expressed mRNA in the absence of chemical substance,yeast gene YNL256W,0.6
same,The level of expressed mRNA in the presence of chemical substance/The level of expressed mRNA in the absence of chemical substance,yeast gene YOL096C,1.2
same,The level of expressed mRNA in the presence of chemical substance/The level of expressed mRNA in the absence of chemical substance,yeast gene YOR020C,1.4
same,The level of expressed mRNA in the presence of chemical substance/The level of expressed mRNA in the absence of chemical substance,yeast gene YOR037W,1.2
same,The level of expressed mRNA in the presence of chemical substance/The level of expressed mRNA in the absence of chemical substance,yeast gene YOR100C,0.9
same,The level of expressed mRNA in the presence of chemical substance/The level of expressed mRNA in the absence of chemical substance,yeast gene YOR130C,1.5
same,The level of expressed mRNA in the presence of chemical substance/The level of expressed mRNA in the absence of chemical substance,yeast gene YOR142W,0.9
same,The level of expressed mRNA in the presence of chemical substance/The level of expressed mRNA in the absence of chemical substance,yeast gene YOR150W,0.9
same,The level of expressed mRNA in the presence of chemical substance/The level of expressed mRNA in the absence of chemical substance,yeast gene YOR176W,1.2
same,The level of expressed mRNA in the presence of chemical substance/The level of expressed mRNA in the absence of chemical substance,yeast gene YOR187W,0.8
same,The level of expressed mRNA in the presence of chemical substance/The level of expressed mRNA in the absence of chemical substance,yeast gene YOR316C,0.8
same,The level of expressed mRNA in the presence of chemical substance/The level of expressed mRNA in the absence of chemical substance,yeast gene YPL040C,0.8
same,The level of expressed mRNA in the presence of chemical substance/The level of expressed mRNA in the absence of chemical substance,yeast gene YPL134C,1.3
same,The level of expressed mRNA in the presence of chemical substance/The level of expressed mRNA in the absence of chemical substance,yeast gene YPL135W,1.5
same,The level of expressed mRNA in the presence of chemical substance/The level of expressed mRNA in the absence of chemical substance,yeast gene YPL215W,1.0
same,The level of expressed mRNA in the presence of chemical substance/The level of expressed mRNA in the absence of chemical substance,yeast gene YPL262W,1.1
same,The level of expressed mRNA in the presence of chemical substance/The level of expressed mRNA in the absence of chemical substance,yeast gene YPR024W,1.1
same,The level of expressed mRNA in the presence of chemical substance/The level of expressed mRNA in the absence of chemical substance,yeast gene YPR037C,1.2
same,The level of expressed mRNA in the presence of chemical substance/The level of expressed mRNA in the absence of chemical substance,yeast gene YPR047W,1.0
same,The level of expressed mRNA in the presence of chemical substance/The level of expressed mRNA in the absence of chemical substance,yeast gene YPR134W,1.0
